Measurements published in patent publication US20250163365A1, “LACTOBACILLUS REUTERI JH53 STRAIN HAVING EXCELLENT ORGANIC ACID RESISTANCE AND CONVERSION OF 1,3-PROPANDIOL FROM GLYCEROL, AND USE THEREOF” (ACTIVON CO., LTD., priority 2021, published 2025).
Converted amounts (≈) assume the structure as drawn. Read-outs that look alike come from different tables or passages of the source.

Experiments:
[1] = test system: Lactobacillus reuteri CH53 strain; assay: IC50 of Lactobacillus reuteri CH53 strain for metabolites (Example 1); assay type: cell-based
Method: The half-maximal inhibitory concentrations (IC50) of the Lactobacillus reuteri CH53 strain (KCTC13149BP) for major metabolites were measured. […] Thereafter, 1% (v/v) of the strain culture with OD600 nm=8.0 was inoculated into each broth and statically cultured at 37° C. for 24 hours, and the concentration at which the absorbance (OD600 nm) was half of the control was measured.

[2] = test system: Lactobacillus reuteri CH53 strain; assay: Fed-batch culture of CH53 in medium supplemented with organic acid; assay type: cell-based; conditions: 10 g/L organic acid added, pH 5.5, fed-batch, 37° C., 100 rpm
Method: Cell growth and 1,3-propanediol production were measured while the Lactobacillus reuteri CH53 strain was fed-batch cultured in a medium supplemented with an organic acid. 3 L of MRS broth containing 20 g/L of glycerol, 10 g/L of proteose peptone NO. […] During culture, glucose and glycerol were continuously fed so that they could be maintained at residual concentrations of 5 to 10 g/L. Thereafter, 1% (v/v) of the strain culture with OD600 nm=8.0 was inoculated into each broth, and the absorbance (OD600 nm) was measured while fed-batch culture was carried out under conditions of 37° C. and 100 rpm. 1 mL of each culture was centrifuged at 13,000 rpm for 5 minutes, and then the supernatant was filtered through a 0.22-μm filter and the concentration of 1,3-propanediol was measured using high-performance liquid chromatography. 1,3-Propanediol production was analyzed by high-performance liquid chromatography equipped with an ion exchange column ([…], Aminex HPX-87H, Bio-Rad) and a differential refraction detector (RID) using 0.25 mM H2SO4 as a mobile phase at a flow rate of 0.6 ml/min.

[3] = test system: L. reuteri JH53; assay: IC50 for organic acids, mutant strain (Example 3); assay type: cell-based, Lactobacillus reuteri; conditions: Limosilactobacillus reuteri, JH53, 24 h, pH 5.5, read-out: IC50 (g/L) L. reuteri JH53
Method: (§1) In order to confirm that the Lactobacillus reuteri JH53 strain of the present invention has enhanced organic acid resistance, the half-maximal inhibitory concentrations (IC50) for organic acids were measured. […] Thereafter, 1% (v/v) of each strain culture with OD600 nm=8.0 was inoculated into each broth and statically cultured at 37° C. for 24 hours, and the concentration at which the absorbance (OD600 nm) was half of the control was measured.

[4] = test system: L. reuteri CH53; assay: IC50 for organic acids, parent strain (Example 3); assay type: cell-based, Lactobacillus reuteri; conditions: Limosilactobacillus reuteri
Method: as §1

[5] = test system: Lactobacillus reuteri CH53 strain; conditions: lactic acid and acetic acid mixed in MRS plate medium, anaerobic, 37° C., 24 hours
[6] = Limosilactobacillus reuteri, CH53STRAIN, CH53 strain, MRS broth pH 5.5, static culture 37° C. 24 hours, concentration at which OD600 nm was half of control, read-out: IC50

| SMILES | IC50 ([1]; Limosilactobacillus reuteri, CH53STRAIN, 24 h, pH 5.5) [mg/mL] | Effect on 1,3-propanediol production of CH53 strain [2] | Effect on cell growth of CH53 strain [2] | IC50 [3] [g/L] | IC50 ([4]; CH53, 24 h, pH 5.5, read-out: IC50 (g/L) L. reuteri CH53) [g/L] | Concentration at which CH53 strain could not grow [5] [g/L] | IC50 [1, 6] [mg/mL] | IC50 ([4]; CH53, MRS broth pH 5.5, static culture 37° C. 24 hours, OD600 nm half of control, read-out: IC50 (g/L) L. reuteri CH53) [g/L] | IC50 ([1]; CH53 strain, MRS broth pH 5.5, static culture 37° C. 24 hours, concentration at which OD600 nm was half of control) [mg/mL] |
| --- | --- | --- | --- | --- | --- | --- | --- | --- | --- |
| CC(=O)O [Acetic acid] | 17.4 | reduced 1,3-propanediol production | did not affect cell growth | 25.6 (≈ 426 mM) | 20.6 (≈ 343 mM) | ≥ 17.5 | – | – | – |
| CC(O)C(=O)O (centres unmarked) [Lactic acid] | – | reduced 1,3-propanediol production | did not affect cell growth | 36.7 (≈ 407 mM) | – | ≥ 35.0 | 27.9 | 31.9 (≈ 354 mM) | – |
| CCO [Ethanol] | – | – | – | – | – | – | 29.5 | – | – |
| OCCCO [1,3-propanediol] | – | – | – | – | – | – | – | – | 79.8 |
